PubChem BioAssay AID1963977 (Molecular Pharmacology Branch, DTP, NCI, 2024)

Tested on: 624824-186-R-J3-PDC multicell spheroids, viability
Test: Anticancer human tumor 624824-186-R-J3-PDC patient-derived colon adenocarcinoma cell line growth inhibition [PI3K]
Conditions: for viability, T/C: stronger effect = lower value; active means viability on the fitted dose curve at most 10% of control; inactive means the rest
How it was run: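 Stroma-containing spheroids: tumor line, pooled-donor HUVEC, hMSC. Treatments: targeted agents with PI3K inhibitors. Dosing: clinically relevant, half-log spacing, 10 microM ceiling without known Cmax. Read-out: cell viability.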

[1] = curve of first compound, second compound 0.00316 µM
[2] = curve of first compound, second compound 0.01 µM
[3] = curve of first compound, second compound 0.0316 µM
[4] = curve of first compound, second compound 0.1 µM
[5] = curve of first compound, second compound 0.316 µM
[6] = curve of first compound, second compound 1 µM
[7] = second compound 0.00316 µM, first compound 0.0316 µM
[8] = second compound 0.00316 µM, first compound 0.1 µM
[9] = second compound 0.00316 µM, first compound 0.316 µM
[10] = second compound 0.00316 µM, first compound 1 µM
[11] = second compound 0.00316 µM, first compound 3.16 µM
[12] = second compound 0.00316 µM, first compound 10 µM
[13] = second compound 0.01 µM, first compound 0.0316 µM
[14] = second compound 0.01 µM, first compound 0.1 µM
[15] = second compound 0.01 µM, first compound 0.316 µM
[16] = second compound 0.01 µM, first compound 1 µM
[17] = second compound 0.01 µM, first compound 3.16 µM
[18] = second compound 0.01 µM, first compound 10 µM
[19] = second compound 0.0316 µM, first compound 0.0316 µM
[20] = second compound 0.0316 µM, first compound 0.1 µM
[21] = second compound 0.0316 µM, first compound 0.316 µM
[22] = second compound 0.0316 µM, first compound 1 µM
[23] = second compound 0.0316 µM, first compound 3.16 µM
[24] = second compound 0.0316 µM, first compound 10 µM
[25] = second compound 0.1 µM, first compound 0.0316 µM
[26] = second compound 0.1 µM, first compound 0.1 µM
[27] = second compound 0.1 µM, first compound 0.316 µM
[28] = second compound 0.1 µM, first compound 1 µM
[29] = second compound 0.1 µM, first compound 3.16 µM
[30] = second compound 0.1 µM, first compound 10 µM
[31] = second compound 0.316 µM, first compound 0.0316 µM
[32] = second compound 0.316 µM, first compound 0.1 µM
[33] = second compound 0.316 µM, first compound 0.316 µM
[34] = second compound 0.316 µM, first compound 1 µM
[35] = second compound 0.316 µM, first compound 3.16 µM
[36] = second compound 0.316 µM, first compound 10 µM
[37] = second compound 1 µM, first compound 0.0316 µM
[38] = second compound 1 µM, first compound 0.1 µM
[39] = second compound 1 µM, first compound 0.316 µM
[40] = second compound 1 µM, first compound 1 µM
[41] = second compound 1 µM, first compound 3.16 µM
[42] = second compound 1 µM, first compound 10 µM
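Further: spheroids exposed to agents for seven days before luminescence read.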
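Wherever viability, T/C is given: luminescent signal used as a stand-in for spheroid viability; percent viability relative to DMSO vehicle control wells taken as 100%.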

C#Cc1c(F)ccc2cc(O)cc(-c3ncc4c(N5CC6CCC(C5)N6)nc(OCC56CCCN5CC(F)C6)nc4c3F)c12 (stereo not given) + CC(Nc1ccc2c(c1)OCCn1cc(N3C(=O)OCC3C(F)F)nc1-2)C(N)=O
> 10000 nM: IC50 [1] | IC50 [2] | IC50 [3] | IC50 [4] | IC50 [5] | IC50 [6]
inactive: viability, T/C [7] 106% | viability, T/C [8] 108% | viability, T/C [9] 100% | viability, T/C [10] 108% | viability, T/C [11] 104% | viability, T/C [12] 122% | viability, T/C [13] 109% | viability, T/C [14] 89.9% | viability, T/C [15] 97.1% | viability, T/C [16] 108% | viability, T/C [17] 103% | viability, T/C [18] 101% | viability, T/C [19] 109% | viability, T/C [20] 105% | viability, T/C [21] 107% | viability, T/C [22] 103% | viability, T/C [23] 107% | viability, T/C [24] 106% | viability, T/C [25] 105% | viability, T/C [26] 101% | viability, T/C [27] 108% | viability, T/C [28] 109% | viability, T/C [29] 111% | viability, T/C [30] 103% | viability, T/C [31] 95.9% | viability, T/C [32] 99.7% | viability, T/C [33] 103% | viability, T/C [34] 98% | viability, T/C [35] 104% | viability, T/C [36] 108% | viability, T/C [37] 93.9% | viability, T/C [38] 83.2% | viability, T/C [39] 94.3% | viability, T/C [40] 88.3% | viability, T/C [41] 88.8% | viability, T/C [42] 99.2%

Cn1nccc1Nc1nccc(-c2ccn(C(CO)c3ccc(Cl)c(F)c3)c(=O)c2)n1 (stereo not given)
inactive: viability, T/C (compound 0.0316 µM) 102% [middle of 4 runs] | viability, T/C (compound 0.1 µM) 95.1% [middle of 4 runs] | viability, T/C (compound 0.316 µM) 95.9% [middle of 4 runs] | viability, T/C (compound 1 µM) 80.8% [middle of 4 runs] | viability, T/C (compound 3.16 µM) 69.3% [middle of 4 runs] | viability, T/C (compound 10 µM) 60.9% [middle of 4 runs]
> 10000 nM: IC50 (curve of compound)

CCCS(=O)(=O)Nc1ccc(F)c(C(=O)c2c[nH]c3ncc(-c4ccc(Cl)cc4)cc23)c1F + Cc1nc(NC(=O)N2CCCC2C(N)=O)sc1-c1ccnc(C(C)(C)C(F)(F)F)c1
3750 nM: IC50 [5]
5140 nM: IC50 [3]
inactive: viability, T/C [19] 108% | viability, T/C [20] 92.1% | viability, T/C [21] 103% | viability, T/C [22] 92.6% | viability, T/C [23] 80.5% | viability, T/C [24] 10.2% | viability, T/C [25] 95.6% | viability, T/C [26] 88.1% | viability, T/C [27] 94.6% | viability, T/C [28] 82.1% | viability, T/C [29] 69.7% | viability, T/C [30] 12.8% | viability, T/C [31] 115% | viability, T/C [32] 87.9% | viability, T/C [33] 80.7% | viability, T/C [34] 73.7% | viability, T/C [35] 68.4% | viability, T/C [36] 14.6% | viability, T/C [37] 84.6% | viability, T/C [38] 89.8% | viability, T/C [39] 62% | viability, T/C [40] 65.2% | viability, T/C [41] 43.7% | viability, T/C [42] 13.7% | viability, T/C (second compound 3.16 µM, first compound 0.0316 µM) 77.6% | viability, T/C (second compound 3.16 µM, first compound 0.1 µM) 64.8% | viability, T/C (second compound 3.16 µM, first compound 0.316 µM) 52% | viability, T/C (second compound 3.16 µM, first compound 1 µM) 44.6% | viability, T/C (second compound 3.16 µM, first compound 3.16 µM) 34.7% | viability, T/C (second compound 3.16 µM, first compound 10 µM) 9.51% | viability, T/C (second compound 10 µM, first compound 0.0316 µM) 57% | viability, T/C (second compound 10 µM, first compound 0.1 µM) 50.5% | viability, T/C (second compound 10 µM, first compound 0.316 µM) 36.1% | viability, T/C (second compound 10 µM, first compound 1 µM) 31.8% | viability, T/C (second compound 10 µM, first compound 3.16 µM) 26.6% | viability, T/C (second compound 10 µM, first compound 10 µM) 6.93%
525 nM: IC50 (curve of first compound, second compound 3.16 µM)
4630 nM: IC50 [4]
86.6 nM: IC50 (curve of first compound, second compound 10 µM)
1990 nM: IC50 [6]

CC(C)NCC(C(=O)N1CCN(c2ncnc3c2C(C)CC3O)CC1)c1ccc(Cl)cc1 (stereo not given) + COc1c(OCCCN2CCOCC2)ccc2c3n(c(=NC(=O)c4cnc(N)nc4)nc12)CCN3
inactive: viability, T/C [7] 101% | viability, T/C [8] 103% | viability, T/C [9] 106% | viability, T/C [10] 76.1% | viability, T/C [11] 68.3% | viability, T/C [12] 56.4% | viability, T/C [13] 109% | viability, T/C [14] 97.1% | viability, T/C [15] 101% | viability, T/C [16] 82.2% | viability, T/C [17] 64.5% | viability, T/C [18] 52.7% | viability, T/C [19] 104% | viability, T/C [20] 110% | viability, T/C [21] 85.6% | viability, T/C [22] 84.8% | viability, T/C [23] 60% | viability, T/C [24] 46.7% | viability, T/C [25] 73.2% | viability, T/C [26] 75% | viability, T/C [27] 66.2% | viability, T/C [28] 60.8% | viability, T/C [29] 57.4% | viability, T/C [30] 41.4% | viability, T/C [31] 47.9% | viability, T/C [32] 49% | viability, T/C [33] 46.5% | viability, T/C [34] 38.5% | viability, T/C [35] 37.5% | viability, T/C [36] 33.7% | viability, T/C [37] 29.4% | viability, T/C [38] 28.5% | viability, T/C [39] 28.7% | viability, T/C [40] 27.1% | viability, T/C [41] 26.9% | viability, T/C [42] 27.8%
> 10000 nM: IC50 [1] | IC50 [2]
4860 nM: IC50 [4]
7590 nM: IC50 [3]
< 31.6 nM: IC50 [6]
35.1 nM: IC50 [5]

CC(C)n1nc(-c2ccc3oc(N)nc3c2)c2c(N)ncnc21 + CC(Nc1ccc2c(c1)OCCn1cc(N3C(=O)OCC3C(F)F)nc1-2)C(N)=O
81.1 nM: IC50 [4]
91.7 nM: IC50 [3]
inactive: viability, T/C (second compound 0.00316 µM, first compound 0.000316 µM) 99.7% | viability, T/C (second compound 0.00316 µM, first compound 0.001 µM) 96.8% | viability, T/C (second compound 0.00316 µM, first compound 0.00316 µM) 102% | viability, T/C (second compound 0.00316 µM, first compound 0.01 µM) 101% | viability, T/C [7] 96.2% | viability, T/C [8] 53.6% | viability, T/C (second compound 0.01 µM, first compound 0.000316 µM) 97.3% | viability, T/C (second compound 0.01 µM, first compound 0.001 µM) 102% | viability, T/C (second compound 0.01 µM, first compound 0.00316 µM) 103% | viability, T/C (second compound 0.01 µM, first compound 0.01 µM) 105% | viability, T/C [13] 93.6% | viability, T/C [14] 59.8% | viability, T/C (second compound 0.0316 µM, first compound 0.000316 µM) 105% | viability, T/C (second compound 0.0316 µM, first compound 0.001 µM) 106% | viability, T/C (second compound 0.0316 µM, first compound 0.00316 µM) 98.2% | viability, T/C (second compound 0.0316 µM, first compound 0.01 µM) 99.9% | viability, T/C [19] 93.2% | viability, T/C [20] 46.5% | viability, T/C (second compound 0.1 µM, first compound 0.000316 µM) 99.2% | viability, T/C (second compound 0.1 µM, first compound 0.001 µM) 106% | viability, T/C (second compound 0.1 µM, first compound 0.00316 µM) 101% | viability, T/C (second compound 0.1 µM, first compound 0.01 µM) 96.3% | viability, T/C [25] 84.5% | viability, T/C [26] 42.3% | viability, T/C (second compound 0.316 µM, first compound 0.000316 µM) 92.4% | viability, T/C (second compound 0.316 µM, first compound 0.001 µM) 92.7% | viability, T/C (second compound 0.316 µM, first compound 0.00316 µM) 90.7% | viability, T/C (second compound 0.316 µM, first compound 0.01 µM) 84.9% | viability, T/C [31] 83% | viability, T/C [32] 36.2% | viability, T/C (second compound 1 µM, first compound 0.000316 µM) 85.8% | viability, T/C (second compound 1 µM, first compound 0.001 µM) 86.9% | viability, T/C (second compound 1 µM, first compound 0.00316 µM) 86.5% | viability, T/C (second compound 1 µM, first compound 0.01 µM) 70.5% | viability, T/C [37] 59.5% | viability, T/C [38] 26.2%
> 100 nM: IC50 [1] | IC50 [2]
71 nM: IC50 [5]
42.2 nM: IC50 [6]
